Values after ≈ are worked out from the molar mass of the structure shown. Where two headings read alike, the source gives them in different places.
Assays:
[1] = system: Streptococcus pyogenes C203; assay: MIC, standard agar-dilution assay; assay type: cell-based; details: Streptococcus pyogenes, C203
Experimental: (§1) Certain of the derivatives are active against some gram-negative bacteria, such as Pasteurella species. The MIC's in Table II were determined by standard agar-dilution assays. The MIC's in Table III were obtained using a conventional broth-dilution microtiter test.

[2] = system: Streptococcus Group D X66; assay: MIC, standard agar-dilution assay; assay type: cell-based
Experimental: as §1

Escherichia coli TEM = assay: MIC, standard agar-dilution assay; assay type: cell-based
How it was run: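 Minimum inhibitory concentrations against Escherichia coli were measured with a standard agar-dilution method. The result for each derivative is the lowest concentration that inhibits bacterial growth, given in ug/mL.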

[3] = system: Klebsiella pneumoniae X26; assay: MIC, standard agar-dilution assay; assay type: cell-based
How it was run: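 MICs for the two Pasteurella strains and the Mycoplasma strain were read from a broth-dilution microtiter test. The Klebsiella strain was tested on agar instead.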

[4] = system: Klebsiella pneumoniae KAE; assay: MIC, standard agar-dilution assay; assay type: cell-based
How it was run: (§2)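 Minimum inhibitory concentrations are determined by conventional broth dilution in microtiter wells for Pasteurella and Mycoplasma isolates. For Klebsiella pneumoniae KAE, the standard agar-dilution assay is used.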

[5] = system: Streptococcus pneumoniae Park I; assay: MIC, standard agar-dilution assay; assay type: cell-based
Experimental: as §1

[6] = system: Streptococcus pyogenes 9960; assay: MIC, standard agar-dilution assay; assay type: cell-based; details: 9960
Experimental: as §1

[7] = system: Staphylococcus aureus V41; assay: MIC, standard agar-dilution assay; assay type: cell-based; details: Staphylococcus aureus, V41
Experimental: as §1

Escherichia coli EC14 = assay: MIC, standard agar-dilution assay; assay type: cell-based
Experimental: as §1

[8] = system: Staphylococcus aureus X1.1; assay: MIC, standard agar-dilution assay; assay type: cell-based; details: Staphylococcus aureus, X1.1
How it was run: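 Minimum inhibitory concentration against Staphylococcus aureus strain X1.1 was measured with a standard agar-dilution method. The result is reported as the MIC in ug/mL, i.e. the lowest compound concentration in agar that prevents visible growth of this organism.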

[9] = system: Staphylococcus epidermidis EPI1; assay: microbe, parasite or virus in culture; assay type: cell-based; details: Staphylococcus epidermidis, EPI1
Experimental: (§3) The MIC's in Table II were determined by standard agar-dilution assays. The MIC's in Table III were obtained using a conventional broth-dilution microtiter test.

[10] = system: Staphylococcus aureus S13E; assay: microbe, parasite or virus in culture; assay type: cell-based
Experimental: as §3

Mycoplasma synoviae = assay: MIC, conventional broth-dilution microtiter test; assay type: cell-based; details: Mycoplasmopsis synoviae
How it was run: as §2

Staphylococcus aureus = assay: MIC, conventional broth-dilution microtiter test; assay type: cell-based
Experimental: as §1

[11] = system: Pasteurella hemolytica 41D; assay: MIC, conventional broth-dilution microtiter test; assay type: cell-based
How it was run: as §2

[12] = system: Pasteurella multocida 40G; assay: MIC, conventional broth-dilution microtiter test; assay type: cell-based; details: Pasteurella multocida, 40G
How it was run: as §2

Mycoplasma gallisepticum = assay: MIC, conventional broth-dilution microtiter test; assay type: cell-based; details: Mycoplasmoides gallisepticum
How it was run: as §2

Streptococcus sp. 80 = assay: MIC, conventional broth-dilution microtiter test; assay type: cell-based
Experimental: as §1

[13] = system: Pasteurella multocida 60A; assay: MIC, conventional broth-dilution microtiter test; assay type: cell-based; details: Pasteurella multocida, 60A
How it was run: as §2

[14] = system: Pasteurella multocida 17E; assay: MIC, conventional broth-dilution microtiter test; assay type: cell-based; details: Pasteurella multocida, 17E
How it was run: as §2

[15] = system: Pasteurella hemolytica 22C; assay: MIC, conventional broth-dilution microtiter test; assay type: cell-based
How it was run: as §2

[16] = system: Mycoplasma gallisepticum 34159; assay: MIC, conventional broth-dilution microtiter test; assay type: cell-based; details: Mycoplasmoides gallisepticum
How it was run: as §2

Mycoplasma hyorhinis = assay: MIC, conventional broth-dilution microtiter test; assay type: cell-based
How it was run: as §2

[17] = system: Pasteurella multocida 22A; assay: MIC, conventional broth-dilution microtiter test; assay type: cell-based; details: Pasteurella multocida, 22A
How it was run: as §2

[18] = system: Pasteurella hemolytica 23C; assay: MIC, conventional broth-dilution microtiter test; assay type: cell-based
How it was run: as §2

[19] = system: Pasteurella multocida 68C; assay: MIC, conventional broth-dilution microtiter test; assay type: cell-based; details: Pasteurella multocida, 68C
How it was run: as §2

[20] = system: Mycoplasma gallisepticum 41313; assay: MIC, conventional broth-dilution microtiter test; assay type: cell-based; details: Mycoplasmoides gallisepticum
How it was run: as §2

[21] = system: Streptococcus pyogenes C203; assay: Protection of mice experimentally infected with S. pyogenes C203; assay type: in vivo
Experimental: Some of the derivatives of this invention have shown in vivo antimicrobial activity against experimentally-induced infections in laboratory animals. When two doses of test compound were administered to mice experimentally infected with S. pyogenes C203, the activity observed was measured as an ED50 value [effective dose in mg/kg to protect 50% of the test animals: see Warren Wick, et al., J. Bacteriol. 81, 233-235 (1961)].

[22] = system: Haemophilus influenzae 76; assay: MIC, standard agar-dilution assay; assay type: cell-based
Experimental: as §3

[23] = system: Staphylococcus epidermidis EPI2; assay: MIC, standard agar-dilution assay; assay type: cell-based; details: Staphylococcus epidermidis, EPI2
Experimental: as §3

[24] = system: Staphylococcus aureus X400; assay: MIC, standard agar-dilution assay; assay type: cell-based; details: Staphylococcus aureus, X400
Experimental: as §3

[25] = system: Haemophilus influenzae C.L.; assay: MIC, standard agar-dilution assay; assay type: cell-based
Experimental: as §3

[26] = agar-dilution, Escherichia coli TEM, read-out: MIC
[27] = agar-dilution, Klebsiella pneumoniae KAE, read-out: MIC
[28] = agar-dilution, Escherichia coli EC14, read-out: MIC
[29] = broth-dilution microtiter, Pasteurella hemolytica 41D, read-out: MIC
[30] = broth-dilution microtiter, Pasteurella hemolytica 22C, read-out: MIC
[31] = broth-dilution microtiter, Mycoplasma gallisepticum 34159, Resistant strain, read-out: MIC
[32] = broth-dilution microtiter, Pasteurella hemolytica 23C, read-out: MIC
[33] = broth-dilution microtiter, Mycoplasma gallisepticum 41313, Resistant strain, read-out: MIC
[34] = C203, mice, oral, mg/kg × 2, doses given 1 and 4 hours postinfection, read-out: ED50 Oral
[35] = C203, sc, mice, subcutaneous, mg/kg × 2, doses given 1 and 4 hours postinfection, read-out: ED50 Subcutaneous
[36] = agar-dilution, Haemophilus influenzae 76, Ampicillin-resistant strain, read-out: MIC

| SMILES | MIC [1] [µg/mL] | MIC [2] [µg/mL] | MIC ([3]; Klebsiella pneumoniae, X26) [µg/mL] | MIC ([5]; Streptococcus pneumoniae) [µg/mL] | MIC [6] [µg/mL] | MIC [7] [µg/mL] | MIC [8] [µg/mL] | MIC [9] [µg/mL] | MIC [10] [µg/mL] | MIC (Mycoplasma synoviae) [µg/mL] | MIC (Staphylococcus aureus) [µg/mL] | MIC [12] [µg/mL] | MIC (Mycoplasma gallisepticum) [µg/mL] | MIC (Streptococcus sp. 80; Streptococcus, SP.80) [µg/mL] | MIC [13] [µg/mL] | MIC [14] [µg/mL] | MIC [17] [µg/mL] | MIC [19] [µg/mL] | MIC [23] [µg/mL] | MIC [24] [µg/mL] | other results |
| --- | --- | --- | --- | --- | --- | --- | --- | --- | --- | --- | --- | --- | --- | --- | --- | --- | --- | --- | --- | --- | --- |
| CCC1CC(C)C(=O)C=CC(C)=CC(COC(=O)Cc2ccccc2)C(CC)OC(=O)CC(O)C(C)C1OC1OC(C)C(O)C(N(C)C)C1O (stereo not drawn) [Compound 41, 23-O-Phenylacetyl-20-deoxy-20-dihydro-OMT] | 0.5 (≈ 0.712 µM) | 1 (≈ 1.42 µM) | 4 (≈ 5.7 µM) | 0.25 (≈ 0.356 µM) | 1 (≈ 1.42 µM) | 0.5 (≈ 0.712 µM) | 0.5 (≈ 0.712 µM) | 0.5 (≈ 0.712 µM) | 0.5 (≈ 0.712 µM) | 3.12 (≈ 4.45 µM) | 0.78 (≈ 1.11 µM) | 12.5 (≈ 17.8 µM) | 3.12 (≈ 4.45 µM) | 1.56 (≈ 2.22 µM) | 3.12 (≈ 4.45 µM) | 12.5 (≈ 17.8 µM) | 25 (≈ 35.6 µM) | 3.12 (≈ 4.45 µM) | 0.5 (≈ 0.712 µM) | 0.5 (≈ 0.712 µM) | MIC (Escherichia coli TEM; Escherichia coli): 16 µg/mL (≈ 22.8 µM); MIC ([4]; Klebsiella pneumoniae): > 128 µg/mL; MIC (Escherichia coli EC14; Escherichia coli, EC14): 128 µg/mL (≈ 182 µM); MIC ([11]; Pasteurella, 41D): 12.5 µg/mL (≈ 17.8 µM); MIC ([15]; Pasteurella, 22C): 12.5 µg/mL (≈ 17.8 µM); MIC [16]; 34159: 50 µg/mL (≈ 71.2 µM); MIC (Mycoplasma hyorhinis; Mycoplasma): 50 µg/mL (≈ 71.2 µM); MIC ([18]; Pasteurella, 23C): 12.5 µg/mL (≈ 17.8 µM); MIC [20]; 41313: 50 µg/mL (≈ 71.2 µM); ED50 ([21]; C203, po, read-out: ED50 Oral): > 100 mg/kg; ED50 ([21]; C203, sc, read-out: ED50 Subcutaneous): > 25 mg/kg; MIC ([22]; Haemophilus influenzae, 76): 8 µg/mL (≈ 11.4 µM); MIC ([25]; Haemophilus influenzae): 8 µg/mL (≈ 11.4 µM) |
| CCC1OC(=O)CC(O)C(C)C(OC2OC(C)C(O)C(N(C)C)C2O)C(CCOc2ccccc2)CC(C)C(=O)C=CC(C)=CC1COC(=O)CCc1ccccc1 (stereo not drawn) [Compound 33, 20-O-Phenyl-20-dihydro-23-O-phenylpropionyl-OMT] | 2 (≈ 2.48 µM) | 1 (≈ 1.24 µM) | 32 (≈ 39.6 µM) | 0.5 (≈ 0.619 µM) | 2 (≈ 2.48 µM) | 1 (≈ 1.24 µM) | 1 (≈ 1.24 µM) | 1 (≈ 1.24 µM) | 1 (≈ 1.24 µM) | 6.25 (≈ 7.73 µM) | 0.78 (≈ 0.965 µM) | 3.12 (≈ 3.86 µM) | 0.78 (≈ 0.965 µM) | 0.097 (≈ 0.12 µM) | 3.12 (≈ 3.86 µM) | 3.12 (≈ 3.86 µM) | 3.12 (≈ 3.86 µM) | 3.12 (≈ 3.86 µM) | 1 (≈ 1.24 µM) | 2 (≈ 2.48 µM) | MIC (Escherichia coli TEM; [26]): > 128 µg/mL; MIC [4, 27]: > 128 µg/mL; MIC (Escherichia coli EC14; [28]): > 128 µg/mL; MIC [11, 29]: 25 µg/mL (≈ 30.9 µM); MIC [15, 30]: 25 µg/mL (≈ 30.9 µM); MIC [16, 31]: 12.5 µg/mL (≈ 15.5 µM); MIC (Mycoplasma hyorhinis; Mycoplasma): 50 µg/mL (≈ 61.9 µM); MIC [18, 32]: 25 µg/mL (≈ 30.9 µM); MIC [20, 33]: 25 µg/mL (≈ 30.9 µM); ED50 [21, 34]: > 50 mg/kg; ED50 [21, 35]: > 10 mg/kg; MIC [22, 36]: > 128 µg/mL; MIC ([25]; Haemophilus influenzae): 128 µg/mL (≈ 158 µM) |
| CCC1OC(=O)CC(O)C(C)C(OC2OC(C)C(O)C(N(C)C)C2O)C(CCOc2ccccc2)CC(C)C(=O)C=CC(C)=CC1COc1ccccc1 (stereo not drawn) [Compound 32, 20,23-Di-O-phenyl-20-dihydro-OMT] | 2 (≈ 2.66 µM) | – | – | – | 2 (≈ 2.66 µM) | 1 (≈ 1.33 µM) | 1 (≈ 1.33 µM) | 1 (≈ 1.33 µM) | 1 (≈ 1.33 µM) | 6.25 (≈ 8.31 µM) | – | 3.12 (≈ 4.15 µM) | – | – | 3.12 (≈ 4.15 µM) | 3.12 (≈ 4.15 µM) | 3.12 (≈ 4.15 µM) | 3.12 (≈ 4.15 µM) | 1 (≈ 1.33 µM) | 2 (≈ 2.66 µM) | MIC ([2]; agar-dilution, Streptococcus Group D X66, read-out: MIC): 0.5 µg/mL (≈ 0.665 µM); MIC (Escherichia coli TEM; [26]): > 128 µg/mL; MIC ([3]; agar-dilution, Klebsiella pneumoniae X26, read-out: MIC): > 128 µg/mL; MIC [4, 27]: > 128 µg/mL; MIC ([5]; agar-dilution, Streptococcus pneumoniae Park I, read-out: MIC): 0.25 µg/mL (≈ 0.332 µM); MIC (Escherichia coli EC14; [28]): > 128 µg/mL; MIC (Staphylococcus aureus; broth-dilution microtiter, read-out: MIC): 0.39 µg/mL (≈ 0.519 µM); MIC [11, 29]: 12.5 µg/mL (≈ 16.6 µM); MIC (Mycoplasma gallisepticum; broth-dilution microtiter, Mycoplasma gallisepticum, read-out: MIC): 0.78 µg/mL (≈ 1.04 µM); MIC (Streptococcus sp. 80; broth-dilution microtiter, Streptococcus sp. 80, read-out: MIC): 0.048 µg/mL (≈ 0.0638 µM); MIC [15, 30]: 12.5 µg/mL (≈ 16.6 µM); MIC [16, 31]: 6.25 µg/mL (≈ 8.31 µM); MIC (Mycoplasma hyorhinis; broth-dilution microtiter, Mycoplasma hyorhinis, read-out: MIC): 50 µg/mL (≈ 66.5 µM); MIC [18, 32]: 12.5 µg/mL (≈ 16.6 µM); MIC [20, 33]: 25 µg/mL (≈ 33.2 µM); ED50 [21, 34]: > 50 mg/kg; ED50 [21, 35]: > 10 mg/kg; MIC [22, 36]: > 128 µg/mL; MIC ([25]; agar-dilution, Haemophilus influenzae C.L., Ampicillin-sensitive strain, read-out: MIC): > 128 µg/mL |
